Reference: patent US20240057587A1, “ORGANIC AMMONIUM SALT AND HYDROGEN-BONDING MATERIAL TREATMENT AGENT USING SAME” (MIYOSHI OIL & FAT CO.,LTD., priority 2019, published 2024)
Read-outs that look alike come from different tables or passages of the source.

Assays:
urease [1] = biological target: T1, urease (Canavalia ensiformis, UniProt P07374); assay type: biochemical, sword bean
urease [2] = biological target: T1, urease; assay type: biochemical, sword bean; remark: listed apart in the source
cytochrome C [3] = biological target: T2, cytochrome C (Equus caballus, UniProt P00004); assay: Protein long-term stability (IR and UV spectrum), solid sample; design: species or system Horse
T2 construct: a reagent produced by NACALAI TESQUE, INC; (Horse Heart, molecular weight 12384) was used; purchased NACALAI TESQUE, INC; host or cells: horse heart (tissue origin)

urease [4] = biological target: T1, urease; assay type: biochemical, sword bean; remark: listed apart in the source
cytochrome C [5] = biological target: T2, cytochrome C; assay: Protein long-term stability, 50% aqueous solution; design: species or system Horse
Protocol: At first, changes in amide absorption by IR spectrum were precisely observed, and there were confirmed the higher-order structures of protein (turn, α-helix, random coil, β-sheet). The amide I region (1,600 to 1,700 cm^−1) and the amide II region (1,500 to 1,600 cm^−1) were measured by ATR method using a Fourier transform infrared spectrophotometer (FT/IR-6100 by JASCO Corporation), and peaks were then detected based on a difference(s) between a cytochrome C-free organic ammonium salt sample (blank) and a cytochrome C-containing organic ammonium salt sample (sample).
Further, the activity state of cytochrome C (Fe^2+: reduced form, Fe^3+: oxidized form) was confirmed via absorptions in UV spectrum. The measurement was conducted using an ultraviolet-visible spectrophotometer and a quartz cell having an optical path width of 2 mm, immediately after diluting the cytochrome C-containing organic ammonium salt sample to 1% with a 50 mM phosphate buffer of pH 7.4 (prepared using 50 mM potassium dihydrogen phosphate and 50 mM dipotassium hydrogen phosphate).

[6] = urease, solid sample mixed by mortar, 40° C., 80% RH, after 30 days, 1:1
[7] = urease, solid sample, solvent distilled away from dissolution solution, 40° C., 80% RH, after 30 days, 1:1
[8] = solid sample, 40° C., 80% RH, after 30 days, Stabilizer:Enzyme = 0.1:1
[9] = solid sample, 40° C., 80% RH, after 30 days, Stabilizer:Enzyme = 1:1
[10] = solid sample, 40° C., 80% RH, after 30 days, Stabilizer:Enzyme = 10:1
[11] = urease in 50 wt % aqueous solution of compound, 40° C., 80% RH, after 30 days, Stabilizer:Enzyme = 1:1
[12] = cytochrome C, solid sample, 40° C., 80% RH, after 30 days, Stabilizer:Protein = 0.1:1
[13] = cytochrome C, solid sample, 40° C., 80% RH, after 30 days, Stabilizer:Protein = 1:1
[14] = cytochrome C, solid sample, 40° C., 80% RH, after 30 days, Stabilizer:Protein = 10:1
[15] = cytochrome C in 50 wt % aqueous solution of compound, 40° C., after 30 days, 1:1

T1 sequence (P07374 whole entry, looked up): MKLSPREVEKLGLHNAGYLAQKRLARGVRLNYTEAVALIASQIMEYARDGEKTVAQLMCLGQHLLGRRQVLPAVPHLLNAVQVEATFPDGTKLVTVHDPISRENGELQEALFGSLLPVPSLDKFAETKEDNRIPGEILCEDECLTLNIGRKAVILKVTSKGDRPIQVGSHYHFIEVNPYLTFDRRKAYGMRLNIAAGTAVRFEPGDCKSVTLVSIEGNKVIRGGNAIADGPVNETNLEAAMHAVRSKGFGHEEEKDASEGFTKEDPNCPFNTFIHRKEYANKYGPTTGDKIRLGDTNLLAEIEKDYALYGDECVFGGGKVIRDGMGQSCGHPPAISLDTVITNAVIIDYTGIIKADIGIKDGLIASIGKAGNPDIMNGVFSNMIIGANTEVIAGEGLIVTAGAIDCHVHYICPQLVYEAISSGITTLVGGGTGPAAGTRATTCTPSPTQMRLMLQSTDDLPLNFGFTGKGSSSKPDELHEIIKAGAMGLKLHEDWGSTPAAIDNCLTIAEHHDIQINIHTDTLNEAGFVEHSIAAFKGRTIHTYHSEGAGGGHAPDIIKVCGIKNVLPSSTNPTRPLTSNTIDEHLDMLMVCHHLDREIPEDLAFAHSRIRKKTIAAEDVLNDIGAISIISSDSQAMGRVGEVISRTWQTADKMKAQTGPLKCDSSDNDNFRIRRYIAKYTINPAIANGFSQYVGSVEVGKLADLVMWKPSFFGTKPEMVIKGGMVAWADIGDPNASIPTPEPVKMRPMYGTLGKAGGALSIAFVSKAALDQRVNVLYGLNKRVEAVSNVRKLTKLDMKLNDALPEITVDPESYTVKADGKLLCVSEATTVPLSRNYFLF
T2 sequence (P00004 whole entry): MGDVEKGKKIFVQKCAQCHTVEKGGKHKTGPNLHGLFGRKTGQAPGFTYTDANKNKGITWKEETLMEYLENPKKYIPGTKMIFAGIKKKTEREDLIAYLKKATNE

| SMILES | Enzyme activity retention rate (%) (after 30 days) Stabilizer:Enzyme = 1:1, Mixed by mortar (urease [1]) | Enzyme activity retention rate (%) (after 30 days) Stabilizer:Enzyme = 1:1, Solvent distilled away from dissolution solution (urease [1]) | Enzyme activity retention rate(%) (after 30 days) Stabilizer: Enzyme = 0.1:1 (urease [2]) | Enzyme activity retention rate(%) (after 30 days) Stabilizer: Enzyme = 1:1 (urease [2]) | Enzyme activity retention rate(%) (after 30 days) Stabilizer: Enzyme = 10:1 (urease [2]) | Protein long-term stability (after 30 days) Stabilizer: Protein = 0.1:1 (cytochrome C [3]) | Protein long-term stability (after 30 days) Stabilizer: Protein = 1:1 (cytochrome C [3]) | Protein long-term stability (after 30 days) Stabilizer: Protein = 10:1 (cytochrome C [3]) | Enzyme activity retention rate(%) (after 30 days) Stabilizer: Enzyme = 1:1 (urease [4]) | Enzyme activity retention rate (%) (after 30 days) Stabilizer:Enzyme = 1:1, Mixed by mortar (urease [1]; [6]) | Enzyme activity retention rate (%) (after 30 days) Stabilizer:Enzyme = 1:1, Solvent distilled away from dissolution solution (urease [1]; [7]) | Enzyme activity retention rate(%) (after 30 days) Stabilizer: Enzyme = 0.1:1 (urease [2]; [8]) | Enzyme activity retention rate(%) (after 30 days) Stabilizer: Enzyme = 1:1 (urease [2]; [9]) | Enzyme activity retention rate(%) (after 30 days) Stabilizer: Enzyme = 10:1 (urease [2]; [10]) | Enzyme activity retention rate(%) (after 30 days) Stabilizer: Enzyme = 1:1 (urease [4]; [11]) | Protein long-term stability (after 30 days) Stabilizer: Protein = 0.1:1 (cytochrome C [3]; [12]) | Protein long-term stability (after 30 days) Stabilizer: Protein = 1:1 (cytochrome C [3]; [13]) | Protein long-term stability (after 30 days) Stabilizer: Protein = 10:1 (cytochrome C [3]; [14]) | Protein long-term stability (after 30 days) Stabilize:Protein = 1:1 (cytochrome C [5]; [15]) | Protein long-term stability (after 30 days) Stabilize:Protein = 1:1 (cytochrome C [5]) |
| --- | --- | --- | --- | --- | --- | --- | --- | --- | --- | --- | --- | --- | --- | --- | --- | --- | --- | --- | --- | --- |
| CC(O)C(=O)O.CCCCN(CCCC)CCCC [Comparative example 1, Tributyl Ammonium Lactate, reference compound] | 0 | 0 | 0 | 0 | 0 | × | × | × | 0 |  |  |  |  |  |  |  |  |  |  |  |
| CC(=O)[O-].C[N+](C)(C)CCO [Comparative example 2, Choline Acetate, reference compound] |  |  |  |  |  | × | × | × |  | 0 | 3 | 2 | 3 | 0 | 2 |  |  |  |  |  |
| CCCCn1cc[n+](C)c1.[Br-] [Comparative example 3, BMI-Br, reference compound] | 0 | 0 | 0 | 0 | 0 |  |  |  | 0 |  |  |  |  |  |  | × | × | × |  |  |
| O=C[C@H](O)[C@@H](O)[C@H](O)[C@H](O)CO [Comparative example 4, Glucose, reference compound] | 0 | 0 | 0 | 0 | 0 |  |  |  | 0 |  |  |  |  |  |  | × | × | × |  |  |
| NC(CO)(CO)CO [Working example 3] |  |  |  |  |  |  |  |  |  | 11 | 50 | 20 | 50 | 53 | 32 | ◯ | ◯ | ◯ | ○ ○ ○ |  |
| OCCNCCO [Working example 24] |  |  |  |  |  |  |  |  |  | 5 | 25 | 9 | 25 | 25 | 10 | ◯ | ◯ | ◯ | ○ |  |
| NCC(O)C(O)C(O)C(O)CO (stereo not drawn) [Working example 29] |  |  |  |  |  |  |  |  |  | 0 | 18 | 5 | 18 | 21 | 11 | ◯ | ◯ | ◯ | ○ |  |
| NC(CO)(CO)CO.O=C(O)c1ccccc1 [Working example 60] |  |  |  |  |  | ◯ | ◯ | ◯ |  | 0 | 20 | 7 | 20 | 29 | 21 |  |  |  |  | ○ ○ ○ |
| Br.NC(CO)(CO)CO [Working example 78] | 0 | 24 | 3 | 4 | 18 | ◯ | ◯ | ◯ | 3 |  |  |  |  |  |  |  |  |  |  | ○ ○ ○ |
| NC(CO)(CO)CO [Working example 83] |  |  |  |  |  |  |  |  |  | 0 | 24 | 16 | 24 | 38 | 20 | ◯ | ◯ | ◯ | ○ ○ ○ |  |
